Data reported in article doi:10.1101/2021.04.08.439011v1 (biorxiv, 2021).

Tests used:
Conditions in all cases: 0.1 µM; binder
[1] = target: TRKC (Homo sapiens, UniProt Q16288)
[2] = target: MTOR (Homo sapiens, UniProt P42345)
[3] = target: PRKD3 (Homo sapiens, UniProt O94806)
[4] = target: FLT3(ITD,D835V) (Homo sapiens, UniProt P36888, D835V/ITD)
[5] = target: MKNK2 (Homo sapiens, UniProt Q9HBH9)
[6] = target: NEK3 (Homo sapiens, UniProt P51956)
[7] = target: PIM1 (Homo sapiens, UniProt P11309)
[8] = target: EIF2AK1 (Homo sapiens, UniProt Q9BQI3)
[9] = target: FLT3(ITD,F691L) (Homo sapiens, UniProt P36888, F691L/ITD)
[10] = target: AAK1 (Homo sapiens, UniProt Q2M2I8)
[11] = target: TNIK (Homo sapiens, UniProt Q9UKE5)
[12] = target: BLK (Homo sapiens, UniProt P51451)
[13] = target: TRKB (Homo sapiens, UniProt Q16620)
[14] = target: PAK4 (Homo sapiens, UniProt O96013)
[15] = target: RIOK2 (Homo sapiens, UniProt Q9BVS4)
[16] = target: EPHB6 (Homo sapiens, UniProt O15197)
[17] = target: PIK3CA(M1043I) (Homo sapiens, UniProt P42336, M1043I)
[18] = target: PIK3C2G (Homo sapiens, UniProt O75747)
[19] = target: ERBB4 (Homo sapiens, UniProt Q15303)
[20] = target: BRAF(V600E) (Homo sapiens, UniProt P15056, V600E)
[21] = target: RIPK2 (Homo sapiens, UniProt O43353)
[22] = target: AKT2 (Homo sapiens, UniProt P31751)
[23] = target: CDKL5 (Homo sapiens, UniProt O76039)
[24] = target: CDK2 (Homo sapiens, UniProt P24941)
[25] = target: GRK4 (Homo sapiens, UniProt P32298)
[26] = target: TESK1 (Homo sapiens, UniProt Q15569)
[27] = target: CDK7 (Homo sapiens, UniProt P50613)
[28] = target: CDC2L1 (Homo sapiens, UniProt P21127)
[29] = target: MEK2 (Homo sapiens, UniProt P36507)
[30] = target: CSNK2A2 (Homo sapiens, UniProt P19784)
[31] = target: PRKCI (Homo sapiens, UniProt P41743)

Sequence of RIOK2 (Q9BVS4 whole entry): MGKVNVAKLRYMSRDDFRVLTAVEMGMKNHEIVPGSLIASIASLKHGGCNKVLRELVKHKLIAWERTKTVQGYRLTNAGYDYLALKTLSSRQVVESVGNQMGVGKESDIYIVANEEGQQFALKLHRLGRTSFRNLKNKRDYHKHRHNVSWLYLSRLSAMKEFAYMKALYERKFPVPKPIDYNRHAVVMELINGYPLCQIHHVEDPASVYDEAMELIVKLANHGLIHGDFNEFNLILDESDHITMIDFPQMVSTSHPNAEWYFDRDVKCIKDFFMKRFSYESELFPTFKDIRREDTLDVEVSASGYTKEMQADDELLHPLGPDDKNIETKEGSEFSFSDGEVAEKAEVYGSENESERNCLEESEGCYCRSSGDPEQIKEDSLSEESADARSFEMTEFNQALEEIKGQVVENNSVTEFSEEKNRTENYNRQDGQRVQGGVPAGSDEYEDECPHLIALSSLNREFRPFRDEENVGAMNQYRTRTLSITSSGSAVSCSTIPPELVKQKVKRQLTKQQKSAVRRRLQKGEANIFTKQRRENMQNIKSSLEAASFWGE
Sequence of EPHB6 (O15197 whole entry): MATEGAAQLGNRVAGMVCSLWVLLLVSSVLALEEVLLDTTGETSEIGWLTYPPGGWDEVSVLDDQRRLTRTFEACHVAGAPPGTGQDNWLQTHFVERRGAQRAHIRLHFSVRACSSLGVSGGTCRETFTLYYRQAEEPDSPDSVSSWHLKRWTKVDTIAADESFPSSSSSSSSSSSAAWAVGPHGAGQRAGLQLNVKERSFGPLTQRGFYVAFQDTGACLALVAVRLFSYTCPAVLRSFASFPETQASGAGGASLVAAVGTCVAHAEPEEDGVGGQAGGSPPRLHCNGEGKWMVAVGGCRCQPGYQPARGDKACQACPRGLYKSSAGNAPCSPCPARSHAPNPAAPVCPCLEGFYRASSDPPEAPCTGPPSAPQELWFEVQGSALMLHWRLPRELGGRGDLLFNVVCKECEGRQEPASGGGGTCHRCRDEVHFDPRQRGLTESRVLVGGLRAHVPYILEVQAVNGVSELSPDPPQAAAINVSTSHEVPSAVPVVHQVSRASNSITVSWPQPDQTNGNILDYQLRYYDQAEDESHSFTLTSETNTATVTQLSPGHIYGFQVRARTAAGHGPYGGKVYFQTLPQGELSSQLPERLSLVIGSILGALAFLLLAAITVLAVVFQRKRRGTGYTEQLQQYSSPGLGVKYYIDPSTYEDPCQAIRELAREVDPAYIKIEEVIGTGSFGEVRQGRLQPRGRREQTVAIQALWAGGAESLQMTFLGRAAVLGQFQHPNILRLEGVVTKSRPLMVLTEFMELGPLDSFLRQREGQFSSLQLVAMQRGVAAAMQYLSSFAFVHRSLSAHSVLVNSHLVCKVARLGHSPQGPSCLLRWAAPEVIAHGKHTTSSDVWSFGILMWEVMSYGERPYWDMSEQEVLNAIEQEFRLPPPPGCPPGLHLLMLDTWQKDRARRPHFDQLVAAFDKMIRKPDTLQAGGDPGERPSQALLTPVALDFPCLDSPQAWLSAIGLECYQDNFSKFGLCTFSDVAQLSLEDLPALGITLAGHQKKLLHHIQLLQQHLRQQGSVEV
Sequence of TRKC (Q16288 whole entry): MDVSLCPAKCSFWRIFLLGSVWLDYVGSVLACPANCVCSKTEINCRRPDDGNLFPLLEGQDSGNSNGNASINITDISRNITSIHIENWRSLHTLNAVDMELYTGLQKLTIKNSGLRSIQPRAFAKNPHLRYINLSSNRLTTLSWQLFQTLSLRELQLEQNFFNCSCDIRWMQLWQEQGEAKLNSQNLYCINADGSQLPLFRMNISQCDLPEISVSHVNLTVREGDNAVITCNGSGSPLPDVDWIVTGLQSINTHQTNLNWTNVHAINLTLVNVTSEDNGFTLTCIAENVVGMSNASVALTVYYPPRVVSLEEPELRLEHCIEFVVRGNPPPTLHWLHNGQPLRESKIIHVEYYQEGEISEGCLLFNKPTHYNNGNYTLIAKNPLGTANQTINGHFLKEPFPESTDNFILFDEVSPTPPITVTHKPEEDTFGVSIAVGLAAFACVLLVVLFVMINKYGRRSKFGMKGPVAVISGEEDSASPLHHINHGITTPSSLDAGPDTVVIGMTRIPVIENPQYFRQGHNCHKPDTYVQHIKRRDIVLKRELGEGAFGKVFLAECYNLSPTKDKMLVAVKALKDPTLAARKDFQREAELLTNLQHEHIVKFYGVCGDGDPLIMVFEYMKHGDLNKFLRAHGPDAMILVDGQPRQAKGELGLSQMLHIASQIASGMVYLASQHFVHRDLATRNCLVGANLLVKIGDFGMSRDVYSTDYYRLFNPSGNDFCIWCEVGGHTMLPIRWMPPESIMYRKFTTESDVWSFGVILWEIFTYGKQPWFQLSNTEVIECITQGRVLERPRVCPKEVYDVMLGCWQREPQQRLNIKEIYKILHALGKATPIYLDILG
Sequence of NEK3 (P51956 whole entry): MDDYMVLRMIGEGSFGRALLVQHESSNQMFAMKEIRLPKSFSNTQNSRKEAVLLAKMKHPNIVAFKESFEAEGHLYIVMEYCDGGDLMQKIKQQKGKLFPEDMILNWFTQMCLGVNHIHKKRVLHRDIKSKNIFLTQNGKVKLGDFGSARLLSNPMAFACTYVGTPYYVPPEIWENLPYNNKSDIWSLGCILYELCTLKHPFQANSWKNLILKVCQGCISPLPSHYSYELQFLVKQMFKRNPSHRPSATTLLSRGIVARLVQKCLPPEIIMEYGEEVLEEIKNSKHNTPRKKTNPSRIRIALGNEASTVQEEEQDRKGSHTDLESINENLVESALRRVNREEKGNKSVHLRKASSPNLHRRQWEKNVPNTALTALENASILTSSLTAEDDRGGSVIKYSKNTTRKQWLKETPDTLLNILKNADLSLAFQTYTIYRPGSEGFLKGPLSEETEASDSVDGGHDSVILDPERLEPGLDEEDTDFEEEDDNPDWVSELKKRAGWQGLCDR
Sequence of GRK4 (P32298 whole entry): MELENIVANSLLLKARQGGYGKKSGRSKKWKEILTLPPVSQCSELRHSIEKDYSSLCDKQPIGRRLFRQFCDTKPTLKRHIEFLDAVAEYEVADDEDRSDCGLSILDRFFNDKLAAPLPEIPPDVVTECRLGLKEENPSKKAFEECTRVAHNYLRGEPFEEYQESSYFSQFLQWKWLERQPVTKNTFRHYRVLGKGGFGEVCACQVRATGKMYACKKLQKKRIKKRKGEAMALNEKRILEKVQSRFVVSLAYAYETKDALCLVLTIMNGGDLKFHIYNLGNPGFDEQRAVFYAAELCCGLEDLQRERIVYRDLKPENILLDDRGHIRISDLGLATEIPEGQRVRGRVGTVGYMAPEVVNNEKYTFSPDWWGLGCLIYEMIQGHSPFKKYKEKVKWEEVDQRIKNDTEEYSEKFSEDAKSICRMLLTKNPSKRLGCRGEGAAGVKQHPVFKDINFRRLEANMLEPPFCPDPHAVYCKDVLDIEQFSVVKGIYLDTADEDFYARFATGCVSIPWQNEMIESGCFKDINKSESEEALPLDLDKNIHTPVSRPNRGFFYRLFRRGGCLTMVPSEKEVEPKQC
Sequence of AAK1 (Q2M2I8 whole entry): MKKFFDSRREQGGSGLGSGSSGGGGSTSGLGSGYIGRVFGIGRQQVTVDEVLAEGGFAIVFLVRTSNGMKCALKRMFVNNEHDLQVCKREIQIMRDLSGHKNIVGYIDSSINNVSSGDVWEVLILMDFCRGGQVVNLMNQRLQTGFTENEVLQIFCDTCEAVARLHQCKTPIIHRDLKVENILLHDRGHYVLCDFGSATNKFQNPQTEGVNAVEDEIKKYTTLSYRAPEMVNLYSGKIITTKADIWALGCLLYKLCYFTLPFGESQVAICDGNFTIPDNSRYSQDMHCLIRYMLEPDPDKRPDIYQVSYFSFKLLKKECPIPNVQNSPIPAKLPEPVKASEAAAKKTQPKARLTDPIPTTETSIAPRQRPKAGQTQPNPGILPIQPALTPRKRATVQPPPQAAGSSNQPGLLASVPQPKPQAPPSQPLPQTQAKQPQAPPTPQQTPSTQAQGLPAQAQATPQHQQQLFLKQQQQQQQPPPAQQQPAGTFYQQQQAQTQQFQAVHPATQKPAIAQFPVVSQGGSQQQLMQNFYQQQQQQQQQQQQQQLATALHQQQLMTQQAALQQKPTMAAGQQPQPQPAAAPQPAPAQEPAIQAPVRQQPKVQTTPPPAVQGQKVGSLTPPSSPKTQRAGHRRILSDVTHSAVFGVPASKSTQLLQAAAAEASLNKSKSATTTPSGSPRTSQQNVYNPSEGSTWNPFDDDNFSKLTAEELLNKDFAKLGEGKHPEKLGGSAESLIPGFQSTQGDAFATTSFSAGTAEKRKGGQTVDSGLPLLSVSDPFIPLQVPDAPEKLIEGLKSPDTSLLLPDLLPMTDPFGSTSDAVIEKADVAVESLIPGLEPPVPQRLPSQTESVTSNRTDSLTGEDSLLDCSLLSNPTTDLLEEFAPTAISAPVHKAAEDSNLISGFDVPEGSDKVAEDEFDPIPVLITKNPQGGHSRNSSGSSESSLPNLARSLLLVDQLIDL
Sequence of CSNK2A2 (P19784 whole entry): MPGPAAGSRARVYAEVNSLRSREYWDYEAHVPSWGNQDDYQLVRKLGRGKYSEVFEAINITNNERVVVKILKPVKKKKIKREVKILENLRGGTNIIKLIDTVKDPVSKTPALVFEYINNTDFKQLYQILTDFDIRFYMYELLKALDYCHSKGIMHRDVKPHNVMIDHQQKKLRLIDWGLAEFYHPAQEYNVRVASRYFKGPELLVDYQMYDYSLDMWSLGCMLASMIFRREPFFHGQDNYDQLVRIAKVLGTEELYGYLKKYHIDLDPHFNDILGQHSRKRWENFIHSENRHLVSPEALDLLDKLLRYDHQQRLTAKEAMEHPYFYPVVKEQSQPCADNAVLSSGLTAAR

## CNc1ncc2cc(-c3ccc(-c4cccc(C)n4)cc3Cl)c(=O)n(C[C@H]3OC[C@H](N)CO3)c2n1 [compound 6, G-5555]
[1]
  Percent Control: 84%
[2]
  Percent Control: 83%
[3]
  Percent Control: 95%
[4]
  Percent Control: 88%
[5]
  Percent Control: 100%
[6]
  Percent Control: 93%
[7]
  Percent Control: 100%
[8]
  Percent Control: 97%
[9]
  Percent Control: 56%
[10]
  Percent Control: 100%
[11]
  Percent Control: 100%
[12]
  Percent Control: 100%
[13]
  Percent Control: 100%
[14]
  Percent Control: 100%
[15]
  Percent Control: 100%
[16]
  Percent Control: 61%
[17]
  Percent Control: 76%
[18]
  Percent Control: 95%
[19]
  Percent Control: 100%
[20]
  Percent Control: 100%
[21]
  Percent Control: 100%
[22]
  Percent Control: 100%
[23]
  Percent Control: 82%
[24]
  Percent Control: 96%
[25]
  Percent Control: 100%
[26]
  Percent Control: 83%
[27]
  Percent Control: 100%
[28]
  Percent Control: 100%
[29]
  Percent Control: 33%
[30]
  Percent Control: 96%
[31]
  Percent Control: 97%
